Test results from patent publication US12150920B2, “Topical pharmaceutical composition in the form of aqueous gel comprising at least amitriptyline” (AlgoTherapeutix, priority 2020, dated 2024).

Assay: Ex vivo percutaneous absorption of amitriptyline on human skin samples in a Frantz cell
Assay type: in vitro ADME
Settings: topical application of compositions A and B
Method: Comparative ex vivo study of the percutaneous absorption of amitriptyline in a formulation A in the form of an aqueous gel (invention) and a formulation B in the form of cream (comparative). Each of compositions A and B was applied to distinct samples of human skin. For each composition, the experiment was repeated 3 times with 3 skin samples from 3 different donors, giving 9 samples. The skin samples are placed in a Frantz cell and heated to a surface temperature of 32° C.±1° C. Composition A or B is spread homogenously with a spatula onto each skin sample at a rate of 10 mg per cell, corresponding to 5 mg/cm^2 skin. The skin samples are rinsed 16 hours after application. Each skin sample was placed using tweezers onto absorbent paper (dermis side down). The stratum corneum was removed using adhesive strips. After the removal of the stratum corneum the sample was perforated. The epidermis is then separated from the dermis. Each of them is placed in separate vials. Different samples were then extracted.

Compound: CN(C)CCC=C1c2ccccc2CCc2ccccc21 [amitriptyline]
- Systemic passage of amitriptyline: less than 0.10 % of the administered dose
